Reference: patent publication US11613546B2, “Substituted pyridotriazine compounds and uses thereof” (Gilead Sciences, Inc., priority 2021, dated 2023)
Read-outs that look alike come from different tables or passages of the source.

Columns and labels:
HIV-1 (IIIB) = experiment: Antiviral assay in MT-4 cells; format: cell-based; details: HIV-1 IIIB infected MT-4 cells, 5 days, Cell Titer Glo, read-out: MT4 EC50
Summary of the method: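 MT-4 cells infected with a 1:250 dilution of HIV-1 IIIB stock were incubated with serially diluted (1:3) compound for 5 days at 37 °C. Viability read by Cell Titer Glo luminescence; EC50 is the concentration giving 50% decrease in signal, from sigmoidal dose-response fits.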

[1] = Cytotoxicity assay in MT-4 cells; format: cell-based; details: human, uninfected MT-4 cells, 5 days, Cell Titer Glo; read-out: CC50
Summary of the method: (§1)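 Uninfected MT-4 cells were incubated with 1:3 serially diluted compound in RPMI/10% FBS for 5 days at 37° C. Viability was read by CellTiter-Glo luminescence, with 10 μM puromycin as the baseline cytotoxicity control. Values are the concentration giving a 50% decrease in luminescence, from sigmoidal dose-response fits.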

pLai RLuc reporter virus = experiment: HIV MT-4 serum shift antiviral reporter assay; format: cell-based
Summary of the method: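 MT-4 cells pre-infected with pLai RLuc virus for 2 h at 37 °C, then incubated 72 h at 37 °C with compound in medium (RPMI, 10% FBS) with or without 50% human serum; Renilla luminescence read. EC50 from sigmoidal fit; serum shift = EC50(HS/CCM)/EC50(CCM).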

[2] = Monkey PK after single-dose intravenous infusion; format: in vivo, monkeys; details: for half-life: cynomolgus, monkeys, single-dose intravenous infusion for 30 minutes, plasma, read-out: Cyno half-life (converted)
Description: Test compound PK was determined in monkeys (Labcorp, Madison, Wis.) following a single-dose intravenous infusion for 30 minutes. The dosing vehicle was 10% N-methylpyrrolidone; 50% polyethylene glycol 300 and 40% water (pH 8.3) for intravenous administration in monkeys. Serial blood samples were collected at predose, 0.25, 0.48 (before end of infusion), 0.58, 0.75, 1, 1.5, 2, 4, 8, 12, 24, 48, 72, 96, 120, 144, and 168 hours postdose (based on start of infusion) and plasma test compound concentrations were quantified using an LC-MS/MS method.
Nonclinical plasma samples were prepared by addition of 200 μl cold acetonitrile/internal standard solution to 96-well plates containing 50 μl aliquots of each plasma sample. After protein precipitation, each of the supernatants (50 μl) were transferred to clean 96-well plates and diluted with 450 μl of water. The sample injection volume was 2 μl. Samples were analyzed by a multiple reaction monitoring LC-MS/MS method. LC-MS system consisted of a Cohesive LX-2 multiplex with two identical DIONEX UltiMate 3000 RS pumps, Hypersil Gold C18 HPLC column (50×2.1 mm, […]; Thermo Fisher Scientific), and the ABSciex QTRAP5500 Mass Spectrometer LC-MS/MS system. Chromatography was performed using 0.1% formic acid and 1% isopropyl alcohol in aqueous solution (MP A), and 0.1% formic acid and 1% isopropyl alcohol in acetonitrile (MP B).
Plasma PK parameters for test compounds in monkeys were estimated via noncompartmental analysis using the software program Phoenix WinNonlin, version 6.3 (Pharsight Corporation, Mountain View, Calif.). The following plasma PK parameters were estimated in nonclinical species (as appropriate): observed peak plasma concentration (Cmax), time to reach Cmax (Tmax), last quantifiable plasma concentration (Clast), tin, time of Clast (Tlast), area under the plasma concentration-time curve (AUC) from time 0 to Clast (AUClast), AUC from time 0 to infinity (AUCinf), CL, mean residence time (MRT), and volume of distribution at steady state (Vss).

MT-4 cells = experiment: Cytotoxicity assay in MT-4 cells; format: cell-based
Summary of the method: as §1

[3] = Human immunodeficiency virus 1, IIIB, MT4, 120 h
[4] = Human immunodeficiency virus 1, 72 h, read-out: RLUC 50% HS (nM), HS/CCM: 50% human serum, 72 h, Renilla Glo
[5] = Human immunodeficiency virus 1, 72 h, read-out: RLUC CCM (nM), cell culture media (RPMI, 10% FBS), 72 h, Renilla Glo

Row | SMILES | EC50 (HIV-1 (IIIB); [3]) | CC50 at 5 days [1] | EC50 (pLai RLuc reporter virus; [4]) | EC50 (pLai RLuc reporter virus; [5]) | half-life [2] | EC50 (HIV-1 (IIIB)) | CC50 (MT-4 cells) | EC50 (pLai RLuc reporter virus; HS/CCM: 50% human serum, 72 h, Renilla Glo, read-out: RLUC 50% HS) | EC50 (pLai RLuc reporter virus; cell culture media (RPMI, 10% FBS), 72 h, Renilla Glo, read-out: RLUC CCM) | Cyno half-life ([2]; in vivo, iv)
1 | C[C@@H]1C=C[C@H](C)N2CN1n1cc(C(=O)NCc3ccc(F)cc3F)c(=O)c(O)c1C2=O [Example C29, (1S,2R,5S)—N-(2,4-difluorobenzyl)-8-hydroxy-2,5-dimethyl-7,9-dioxo-2,5,7,9-tetrahydro-1,6-methanopyrido[1,2-b][1,2,5]triazonine-10-carboxamide] | 0.71 nM | 18700 nM | 169 nM | 0.31 nM | 32 h |  |  |  |  | 
2 | C[C@H]1C=C[C@H](C)N2CN1C(=O)c1c(O)c(=O)c(C(=O)NCc3ccc(F)cc3F)cn12 [Example C30, (1S,2S,5S)-8-hydroxy-2,5-dimethyl-7,9-dioxo-N-(2,4-difluorobenzyl)-2,5,7,9-tetrahydro-1,6-methanopyrido[1,2-b][1,2,5]triazonine-10-carboxamide] | 1.3 nM | 35800 nM | 29 nM | 0.32 nM | 6 h |  |  |  |  | 
3 | C[C@H]1CC[C@H](C)N2CN1C(=O)c1c(O)c(=O)c(C(=O)NCc3ccc(F)cc3F)cn12 [Example C31, (1S,2S,5S)—N-(2,4-difluorobenzyl)-8-hydroxy-2,5-dimethyl-7,9-dioxo-2,3,4,5,7,9-hexahydro-1,6-methanopyrido[1,2-b][1,2,5]triazonine-10-carboxamide] | 0.9 nM | 7850 nM | 328 nM | 0.41 nM | 9 h |  |  |  |  | 
4 | C[C@@H]1CC[C@H](C)N2CN1n1cc(C(=O)NCc3ccc(F)cc3F)c(=O)c(O)c1C2=O [Example C37, (1S,2R,5S)—N-(2,4-difluorobenzyl)-8-hydroxy-2,5-dimethyl-7,9-dioxo-2,3,4,5,7,9-hexahydro-1,6-methanopyrido[1,2-b][1,2,5]triazonine-10-carboxamide] | 1.3 nM | 8570 nM | 325 nM | 0.87 nM | 22 h |  |  |  |  | 
5 | CC[C@@H]1C=C[C@H](C)N2CN1n1cc(C(=O)NCc3c(F)cc(F)cc3F)c(=O)c(O)c1C2=O [Example C72, (1S,2R,5S)-2-ethyl-8-hydroxy-5-methyl-7,9-dioxo-N-(2,4,6-trifluorobenzyl)-2,5,7,9-tetrahydro-1,6-methanopyrido[1,2-b][1,2,5]triazonine-10-carboxamide] | 0.5 nM | 13800 nM | 251 nM | 0.33 nM | 51 h |  |  |  |  | 
6 | C[C@H]1C=C[C@@H](CF)N2CN1C(=O)c1c(O)c(=O)c(C(=O)NCc3c(F)cc(F)cc3F)cn12 [Example C76, (1S,2S,5S)-2-(fluoromethyl)-8-hydroxy-5-methyl-7,9-dioxo-N-(2,4,6-trifluorobenzyl)-2,5,7,9-tetrahydro-1,6-methanopyrido[1,2-b][1,2,5]triazonine-10-carboxamide] | 1 nM | 16400 nM | 265 nM | 0.42 nM | 60 h |  |  |  |  | 
7 | O=C(NCc1c(F)cc(F)cc1F)c1cn2c(c(O)c1=O)C(=O)N1CCCCN2C1 [Example C109, (1S)-8-hydroxy-7,9-dioxo-N-(2,4,6-trifluorobenzyl)-2,3,4,5,7,9-hexahydro-1,6-methanopyrido[1,2-b][1,2,5]triazonine-10-carboxamide] |  |  |  |  |  | 1.2 nM | 15200 nM | 11.4 nM | 0.62 nM | 4.7 h
